In one test the target is 5-HT2A receptor (Homo sapiens, UniProt P28223). Put plainly: 5-HT2A receptor binding affinity. The note with it: for Ki: 5-HT2A receptor binding affinity; for 5-HT2A receptor binding affinity compared with sarpogrelate and ketanserin: comparison of Ki values, Table 8. The source says: The 5-HT2A Receptor Binding Affinity of Compounds 116, 157 and 167.
The 5-HT2A receptor binding affinity data are represented by Ki values.

Another test has as its system LPS induced endotoxaemia. In words: Post-treatment of multiple doses on LPS induced endotoxaemia in mice model (survival). Particulars: for survival curve versus vehicle control group: Log rank test, p<0.01. Format: in vivo. The method, then:
12 hours after intraperitoneal injection of lipopolysaccharide (LPS) 100 mg/kg, compound 116 100 μg/kg or 300 μg/kg were administrated intraperitoneally or subcutaneously every 6 hour till 48 hours after LPS insults. […] Survival curves were compared by the Log rank test, and 3 days survival rate was compared by the chi square test.

The subject of test [1] is 5-HT induced amplification of platelet aggregation. Put plainly: Collagen-elicited aggregation of rat platelet rich plasma, amplified by serotonin (Lumi-aggregometer). Format: cell-based, Spraque-Dawley rats. The note with it: rat PRP; for amplifying effects of serotonin on collagen induced platelet aggregation: collagen 3 μg/mL. The method, then:
Blood samples were collected from male adult Spraque-Dawley rats, and platelet rich plasma (PRP) and platelet poor plasma (PPP) were obtained by centrifugation. Aggregation was elicited by adding collagen 3 μg/mL in PRP, and the aggregation response was recorded as the change of light transmission of PRP with Lumi-aggregometer. In FIG. 9a, collagen induced platelet aggregation, and the aggregation response was amplified by adding 10 μM serotonin in 30 seconds before adding collagen, as shown in FIG. 9b.

Test [2] has as its system rat de-endothelial thoracic descending aorta. Put plainly: Serotonin induced rat thoracic aorta contraction (organ bath). Also on record: species or system Sprague Dawley rats. Particulars: 0.03 or 0.1 μM in organ bath; cumulative serotonin 30 nM-0.1 mM; FIG. 10. The method, then: Thoracic aortae were obtained from adult male Sprague Dawley rats. The aortae were cleared of adhering periadventitial fat and cut into strips 3-4 mm in length. […] The tissue was incubated with warmed (37° C.), oxygenated (95% O2/5% CO2) Krebs-Henseleit solution (KBS, pH7.4) consisting of NaCl 118.2 mM, KCl 4.7 mM, KH2PO4 1.2 mM, MgSO4 1.2 mM, CaCl2·2H2O 1.9 mM, NaHCO3 25 mM and glucose 11.7 mM. Indomethacin (10 μM) was added to prevent the production of prostanoids. One end of the segment was fixed to the organ bath chamber, and the other to a force transducer (Type BG 25; Gould, Oxnard, Calif., USA) in which tension is recorded (model RS 3400 recorder, Gould). The preparations were allowed to equilibrate for at least 60 min under a passive tension of 1.5±0.2 g. Cumulative responses to serotonin (30 nM-0.1 mM) were examined for 20 min after addition of 0.03 or 0.1 μM compound 116 to the organ bath. Contraction responses were expressed as the percentage of maximum contraction.

Consider 5 compounds from patent US8552028B2, “8-phenylisoquinolines and pharmaceutical composition used in treatment for sepsis” (National Taiwan University, priority 2011, dated 2013).

Molecules are shown by their SMILES.

Chain of 5-HT2A receptor (P28223 whole entry): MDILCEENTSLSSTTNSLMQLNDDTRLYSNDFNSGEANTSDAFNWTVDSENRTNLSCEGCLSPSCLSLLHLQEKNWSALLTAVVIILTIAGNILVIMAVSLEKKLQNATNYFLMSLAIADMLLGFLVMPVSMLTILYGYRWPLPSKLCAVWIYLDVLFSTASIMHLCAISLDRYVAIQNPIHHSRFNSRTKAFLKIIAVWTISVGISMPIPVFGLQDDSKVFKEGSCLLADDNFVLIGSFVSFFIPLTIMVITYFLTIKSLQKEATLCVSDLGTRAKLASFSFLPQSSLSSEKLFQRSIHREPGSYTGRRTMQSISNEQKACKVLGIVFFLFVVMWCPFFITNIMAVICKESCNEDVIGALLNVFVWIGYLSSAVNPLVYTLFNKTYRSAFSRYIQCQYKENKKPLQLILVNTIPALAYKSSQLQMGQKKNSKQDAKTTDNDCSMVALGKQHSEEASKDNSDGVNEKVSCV

For the compound `COc1cc2c(c(-c3ccccc3F)c1OC)CN(CCc1ccccc1)CC2` [Compound 157], at 5-HT2A receptor, affinity was put at a Ki of 2.21 nM; the “5-HT2A receptor binding affinity compared with sarpogrelate and ketanserin” value is recorded as “higher than those of the well-known 5-HT2A receptor antagonists”.

In the case of `COc1cccc(CCc2ccccc2OCC(CN(C)C)OC(=O)CCC(=O)O)c1` (centres unmarked) [sarpogrelate, reference compound], the affinity at 5-HT2A receptor corresponds to a Ki of 8.39 nM.

For `COc1cc2c(c(-c3ccccc3F)c1OC)CN(CCc1ccccc1Cl)CC2` [Compound 167], the “effect of post-treatment of multiple doses on LPS induced endotoxaemia” value in the test with LPS induced endotoxaemia (same method as for compound 116, FIG. 8) was “Protective Effects”. On 5-HT2A receptor, the Ki (commonly a measure of affinity in units of concentration, obtained from inhibition or displacement) was 0.119 nM; the “5-HT2A receptor binding affinity compared with sarpogrelate and ketanserin” value is on record as “higher than those of the well-known 5-HT2A receptor antagonists”.

As to `O=C(c1ccc(F)cc1)C1CCN(CCn2c(=O)[nH]c3ccccc3c2=O)CC1` [ketanserin, reference compound], the “amplifying effects of serotonin on collagen induced platelet aggregation” value in test [1] (10 μM added 30 seconds before 10 μM serotonin) is recorded as “blocked”.

With `COc1ccc(-c2c(O)c(OC)cc3c2CN(CCc2ccccc2F)CC3)c(OC)c1` [Compound 116], the “survival curve versus vehicle control group” value in the test on LPS induced endotoxaemia (100 μg/kg i.p. or s.c. every 6 hour from 12 h till 48 hours after LPS 100 mg/kg i.p.) is recorded as “shifted the survive curve rightward significantly”. The “survival curve versus vehicle control group” value with LPS induced endotoxaemia (300 μg/kg i.p. or s.c. every 6 hour from 12 h till 48 hours after LPS 100 mg/kg i.p.) is reported as “shifted the survive curve rightward significantly”. In test [1] (3 μg/mL added 30 seconds before 10 μM serotonin), the “amplifying effects of serotonin on collagen induced platelet aggregation” value is listed as “blocked”. In test [1] (FIGS. 9a-9d), the platelet activation result is “Did not Exert Platelet Activation”. For the same compound, at 5-HT2A receptor, affinity was put at a Ki of 3.47 nM; the “5-HT2A receptor binding affinity compared with sarpogrelate and ketanserin” value is on record as “higher than those of the well-known 5-HT2A receptor antagonists”. Also, the “serotonin induced smooth muscle contraction” value in test [2] was “inhibits serotonin induced smooth muscle contraction in a dose dependent manner”.
